Experimental data from patent US20210395256A1, “TYROSINE KINASE INHIBITORS, COMPOSITIONS AND METHODS THERE OF” (Betta Pharmaceuticals Co., Ltd., priority 2018, published 2021).

What was measured:
Format in all cases: in vitro ADME
[1] = Liver microsomes metabolic stability assay, rat; conditions: male, rat liver microsomes 0.5 mg/mL, 37° C.; for half-life at 2 μM: read-out: t1/2 Rat
How it was run: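 Pooled human, male rat or male mouse liver microsomes (0.5 mg/mL final) incubated at 37° C with 2 μM compound, with or without 1 mM NADPH. Samples at 0-60 min quenched in cold acetonitrile and analyzed by LC-MS/MS in duplicate. t1/2 derived from ln(% remaining) vs time slope, converted to CLint (μL/min/mg).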

[2] = Plasma protein binding (equilibrium dialysis), mouse; conditions: pH 7.4, 6 hours dialysis; for fraction unbound at 6 h, 1 μM: read-out: Mean % Bound Mouse (converted)
Method: (§1) Example 204 Plasma Protein Binding Measurements
(§2) The plasma protein binding was measured as the following procedure.
(§3) 1) Preparation of 100 mM sodium phosphate and 150 mM NaCl buffer (PBS)
(§4) A basic solution was prepared by dissolving 14.2 g/L Na2HPO4 and 8.77 g/L NaCl in deionized water and the solution could be stored at 4° C. for up to 7 days. An acidic solution was prepared by dissolving 12.0 g/L NaH2PO4 and 8.77 g/L NaCl in deionized water and the solution could be stored at 4° C. for up to 7 days. The basic solution was titrated with the acidic solution to pH 7.4 and store at 4° C. for up to 7 days. pH was checked on the day of experiment and was adjusted if outside specification of 7.4±0.1.
(§5) Frozen plasma was thawed immediately at room temperature.
(§6) The plasma was centrifuged at 3,220 g for 10 minutes to remove clots and supernatant was collected into a fresh tube. The pH of the plasma was checked and recorded.
(§7) Note: a). Only use plasma that has been thawed no more than twice since arrival. b). Only use plasma within the range of pH 7 to pH 8.
(§8) 3) Preparation of working solutions
(§9) The working solutions of test compounds and control compound ketoconazole were prepared in DMSO at the concentration of 200 μM. And then 3 μL of working solution was removed to mix with 597 μL of human, rat or mouse plasma to achieve a final concentration of 1 μM (0.5% DMSO). Plasma samples were vortexed thoroughly.
(§10) 4) Preparation of dialysis membranes
(§11) The dialysis membranes were soaked in ultrapure water for 60 minutes to separate strips, then in 20% ethanol for 20 minutes, finally in dialysis buffer for 20 minutes.
(§12) 5) Procedure for equilibrium dialysis
(§13) The dialysis apparatus was assembled according to the manufacturer's instruction. Each cell was filled with 120 μL of plasma sample and dialyzed against equal volume of dialysis buffer (PBS). The assay was performed in duplicate. The dialysis plate was sealed and incubated in an incubator at 37° C. with 5% CO2 at 100 rpm for 6 hours. At the end of incubation, seal was removed and 50 μL of samples from both buffer and plasma chambers were transferred to wells of a 96-well plate.
(§14) 6) Procedure for sample analysis
(§15) 50 μL of blank plasma was added to each buffer samples and an equal volume of PBS was supplemented to the collected plasma sample. 300 μL of room temperature quench solution (acetonitrile containing internal standards (1S, 100 nM Alprazolam, 500 nM Labetalol and 2 μM Ketoprofen)) was added to precipitate protein. Samples in plate were vortexed for 5 minutes and centrifuged at 3,220 g for 30 minutes at 4° C. And then 100 μL of the supernatant was transferred to a new 96-well plate with 100 μL or 200 μL water (depends on the LC-MS signal response and peak shape) for LC-MS/MS analysis.
(§16) Calculate the percentages of test compound and control compound bound as follows:
(§17) % Free=(Peak Area Ratiobuffer chamber/Peak Area Ratioplasma chamber)*100
(§18) % Recovery=(Peak Area Ratiobuffer chamber+Peak Area Ratioplasma chamber)/Peak Area Ratio total sample*100
(§19) Peak Area Ratiobuffer chamber means the conc for free fraction
(§20) Peak Area Ratioplasma chamber means the conc for both free and bound fraction
(§21) Peak Area Ratiototal sample means the conc for starting sample before incubation

[3] = Plasma protein binding (equilibrium dialysis), human; conditions: for fraction unbound at 6 h, 1 μM / recovery at 6 h, 1 μM: pH 7.4, human plasma, 6 hours dialysis; for fraction unbound at 6 h, 1 μM: read-out: Mean % Bound Human (converted)
Method: as §1, §2, §3, §4, §5, §6, §7, §8, §9, §10, §11, §12, §13, §14, §15, §16, §17, §18, §19, §20, §21

microsomal CLint at 2 μM [1] [µL/min/mg] | half-life at 2 μM [1] [min] | fraction unbound at 6 h, 1 μM [2] | fraction unbound at 6 h, 1 μM [3] | recovery at 6 h, 1 μM [2] [%] | recovery at 6 h, 1 μM [3] [%] | degree of plasma protein binding (in words) ([3]; as shown in Table 16) | SMILES
29.3 | 47.3 | 0.0443 | 0.0691 |  |  |  | C[C@H](O)c1nnc(-c2cnn3ccc(N4CCC[C@@H]4c4cc(F)ccc4F)nc23)[nH]1 [Compound 4, (S)-1-(5-(5-((R)-2-(2,5-difluorophenyl)pyrrolidin-1-yl)pyrazolo[1,5-a]pyrimidin-3-yl)-4H-1,2,4-triazol-3-yl)ethan-1-ol]
80.2 | 17.3 | 0.0676 | 0.111 | 91.3 | 97.4 |  | C[C@@H](CO)c1nnc(-c2cnn3ccc(N4CCC[C@@H]4c4cc(F)ccc4F)nc23)[nH]1 [Compound 39, (R)-2-(5-(5-((R)-2-(2,5-difluorophenyl)pyrrolidin-1-yl)pyrazolo[1,5-a]pyrimidin-3-yl)-4H-1,2,4-triazol-3-yl)propan-1-ol]
69.1 | 20.1 | 0.0998 | 0.121 | 94.2 | 96.8 |  | OC1CC(c2nnc(-c3cnn4ccc(N5CCC[C@@H]5c5cc(F)ccc5F)nc34)[nH]2)C1 (stereo partly drawn) [Compound 31, (R)-3-(5-(5-(2-(2,5-difluorophenyl)pyrrolidin-1-yl)pyrazolo[1,5-a]pyrimidin-3-yl)-4H-1,2,4-triazol-3-yl)cyclobutan-1-ol]
69.6 | 19.9 | 0.0887 | 0.139 | 90 | 90.7 |  | CC(C)(O)Cc1nnc(-c2cnn3ccc(N4CCC[C@@H]4c4cc(F)ccc4F)nc23)[nH]1 [Compound 30, (R)-1-(5-(5-(2-(2,5-difluorophenyl)pyrrolidin-1-yl)pyrazolo[1,5-a]pyrimidin-3-yl)-4H-1,2,4-triazol-3-yl)-2-methylpropan-2-ol]
50 | 27.7 | 0.0397 | 0.0604 |  |  |  | OC1(c2nnc(-c3cnn4ccc(N5CCC[C@@H]5c5cc(F)ccc5F)nc34)[nH]2)CCC1 [Compound 23, (R)-1-(5-(5-(2-(2,5-difluorophenyl)pyrrolidin-1-yl)pyrazolo[1,5-a]pyrimidin-3-yl)-4H-1,2,4-triazol-3-yl)cyclobutan-1-ol]
78.5 | 17.7 | 0.0488 | 0.0323 | 89.4 | 93.8 | high degree of plasma protein binding | Cc1nnc(-c2cnn3ccc(N4CCCC4c4cc(F)ccc4F)nc23)[nH]1 (centres unmarked) [Comparative compound A, 5-[2-(2,5-Difluorophenyl)pyrrolidin-1-yl]-3-(5-methyl-1H-1,2,4-triazol-3-yl)pyrazolo[1,5-a]pyrimidine, reference compound]
5.23 |  | 0.244 | 0.284 | 85.5 | 89.3 |  | C[C@H](N)c1nnc(-c2cnn3ccc(N4CCC[C@@H]4c4cc(F)ccc4F)nc23)[nH]1 [Compound 11, (S)-1-(5-(5-((R)-2-(2,5-difluorophenyl)pyrrolidin-1-yl)pyrazolo[1,5-a]pyrimidin-3-yl)-4H-1,2,4-triazol-3-yl)ethan-1-amine]
25.3 | 54.9 | 0.0929 | 0.0988 | 89.4 | 96.3 |  | CC(C)(O)c1nnc(-c2cnn3ccc(N4CCC[C@@H]4c4cc(F)ccc4F)nc23)[nH]1 [Compound 7, (R)-2-(5-(5-(2-(2,5-difluorophenyl)pyrrolidin-1-yl)pyrazolo[1,5-a]pyrimidin-3-yl)-4H-1,2,4-triazol-3-yl)propan-2-ol]
